Assays:
Format in all cases: in vivo
Chenopodium album = assay: Test Example 3: herbicidal effect test by treatment of dry field farming soil (one day after seeding); conditions: 120 g/10a active ingredient, evaluated 14 days after treatment
Description: (§1) This test was conducted in a double system per one agent solution concentration area, and the herbicidal rates (%) were determined by the following equation (Math. 1) on 14 days after the treatment with the agents. Herbicidal Rate (%)={1-(Average Dry Weight (g) of Plant of Treated Area)/(Average Dry Weight (g) of Plant of Untreated Area)}×100 [Math. 1]
(§2) Herbicidal Effect Test by Treatment of Dry Field Farming Soil
(§3) Pots with a size of 36 cm^2 were filled with a dry field farming soil (alluvium). The soil of the top layer of 1 cm and seeds of weeds, namely southern crabgrass, Echinochloa crus-galli, Chenopodium album and Amaranthus viridis, 20 seeds each, were evenly mixed, and the top layer was gently pressed. Emulsions prepared using the compounds in Table 5 below according to Formulation Example 5 were diluted with water one day after seeding, and the water-diluted agent solutions were sprayed to the soil surfaces at a ratio of 100 liters per 10 ares. The converted amount of the applied active ingredient corresponded to 120 g per 10 ares. The herbicidal effects were evaluated by the same standard as that in Test Example 1 on 14 days after the treatment with the agents. […] The compound numbers in Table 5 are the same as those in Table 1 and Table 2 above.

Amaranthus viridis = assay: as above; conditions: 120 g/10a active ingredient, evaluated 14 days after treatment
Description: as §1, §2, §3

Echinochloa crus-galli [1] = assay: as above; conditions: 120 g/10a active ingredient, evaluated 14 days after treatment
Description: as §1, §2, §3

southern crabgrass = assay: as above; conditions: 120 g/10a active ingredient, evaluated 14 days after treatment
Description: as §1, §2, §3

Scirpus juncoides [2] = assay: Test Example 1: herbicidal effect test by treatment of rice paddy soil (immediately after seeding)
How it was run: (§4)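 Values are herbicidal rates (%) derived from average plant dry weight in treated versus untreated pots 14 days after treatment, run in duplicate. Treatment was a water-diluted emulsion dropped into flooded paddy soil right after sowing, at 120 g active ingredient per 10 ares.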

Echinochloa crus-galli [3] = assay: as above
How it was run: as §4

[4] = system: broad leaf weeds (Lindernia pyxidaria and Monochoria vaginalis); assay: as above
How it was run: as §4

Scirpus juncoides [5] = assay: Test Example 2: herbicidal effect test by treatment during growing period in paddy rice cultivation (seven days after seeding); conditions: for Herbicidal rate (%) Scirpus juncoides: 120 g/10a active ingredient, assessed 14 days after treatment, dry weight vs untreated area
How it was run: (§5)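 Sow 30 seeds per species (0–1 cm) into puddled, fertilized paddy soil; keep flooded ~3 cm in greenhouse. Day 7 after seeding: drop water-diluted emulsion, 120 g a.i./10 ares. Harvest 14 d post-treatment; compare dry weight with untreated pots (duplicate).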

Echinochloa crus-galli [6] = assay: as above; conditions: for Herbicidal rate (%) Echinochloa crus-galli: 120 g/10a active ingredient, assessed 14 days after treatment, dry weight vs untreated area
How it was run: as §5

[7] = system: broad leaf weeds (Lindernia pyxidaria and Monochoria vaginalis); assay: as above; conditions: for Herbicidal rate (%) Lindernia pyxidaria / Herbicidal rate (%) Monochoria vaginalis: 120 g/10a active ingredient, assessed 14 days after treatment, dry weight vs untreated area
How it was run: as §5

[8] = 120 g/10a active ingredient, dry weight vs untreated area, 14 days after treatment
[9] = Lindernia pyxidaria, 120 g/10a active ingredient, dry weight vs untreated area, 14 days after treatment
[10] = Monochoria vaginalis, 120 g/10a active ingredient, dry weight vs untreated area, 14 days after treatment
[11] = 120 g/10a active ingredient, 14 days after treatment, dry weight vs untreated area
[12] = 120 g/10a, rated 14 days after treatment, paddy soil pots

SMILES	herbicidal rate, Chenopodium album (Chenopodium album)	herbicidal rate, Amaranthus viridis (Amaranthus viridis)	herbicidal rate, Echinochloa crus-galli (Echinochloa crus-galli [1])	herbicidal rate, southern crabgrass (southern crabgrass)	Herbicidal rate (%) Scirpus juncoides (Scirpus juncoides [2]; [8])	Herbicidal rate (%) Echinochloa crus-galli (Echinochloa crus-galli [3]; [8])	Herbicidal rate (%) Lindernia pyxidaria [4, 9]	Herbicidal rate (%) Monochoria vaginalis [4, 10]	Herbicidal rate (%) Scirpus juncoides (Scirpus juncoides [5])	Herbicidal rate (%) Echinochloa crus-galli (Echinochloa crus-galli [6])	Herbicidal rate (%) Lindernia pyxidaria ([7]; Lindernia pyxidaria)	Herbicidal rate (%) Monochoria vaginalis ([7]; Monochoria vaginalis)	Herbicidal rate (%) Scirpus juncoides (Scirpus juncoides [2]; [11])	Herbicidal rate (%) Echinochloa crus-galli (Echinochloa crus-galli [3]; [11])	Herbicidal rate (%) Lindernia pyxidaria ([4]; Lindernia pyxidaria, 120 g/10a active ingredient, 14 days after treatment, dry weight vs untreated area)	Herbicidal rate (%) Monochoria vaginalis ([4]; Monochoria vaginalis, 120 g/10a active ingredient, 14 days after treatment, dry weight vs untreated area)	herbicidal rate, Scirpus juncoides (Scirpus juncoides [5]; [12])	herbicidal rate, Echinochloa crus-galli (Echinochloa crus-galli [6]; [12])	herbicidal rate, Lindernia pyxidaria ([7]; Lindernia pyxidaria, 120 g/10a, rated 14 days after treatment, paddy soil pots)	herbicidal rate, Monochoria vaginalis ([7]; Monochoria vaginalis, 120 g/10a, rated 14 days after treatment, paddy soil pots)
CCn1oc(=O)c(Cc2ccccc2N(S(=O)(=O)C(F)(F)F)S(=O)(=O)C(F)(F)F)c1C [Compound 1-960]	0%	0%	100%	80%	80%	80%	70%	70%	70%	70%	70%	70%	–	–	–	–	–	–	–	–
Cc1c(Cc2ccccc2NS(=O)(=O)C(F)(F)F)c(=O)on1C(C)c1ccccc1 (stereo not drawn) [Compound 1-203]	40%	40%	60%	90%	90%	90%	100%	100%	90%	90%	90%	90%	–	–	–	–	–	–	–	–
Cc1c(Cc2ccccc2NS(=O)(=O)C(F)(F)F)c(=O)on1CCc1ccccc1 [Compound 1-216]	0%	40%	60%	70%	100%	90%	100%	100%	90%	90%	100%	100%	–	–	–	–	–	–	–	–
CC(C)n1oc(=O)c(Cc2ccccc2NS(=O)(=O)C(F)(F)F)c1C1CC1 [Compound 1-83]	40%	40%	50%	40%	90%	90%	100%	70%	60%	40%	40%	40%	–	–	–	–	–	–	–	–
Cc1c(Cc2ccccc2N(C(=O)OCC(C)C)S(=O)(=O)C(F)(F)F)c(=O)on1C(C)C [Compound 1-667]	90%	80%	90%	80%	90%	90%	90%	90%	90%	90%	90%	90%	–	–	–	–	–	–	–	–
Cc1c(Cc2ccccc2NS(=O)(=O)C(F)(F)F)c(=O)on1CCSC(C)C [Compound 1-166]	60%	60%	90%	90%	90%	100%	90%	90%	90%	100%	90%	90%	–	–	–	–	–	–	–	–
Cc1c(Cc2ccccc2N(S(=O)(=O)C(F)(F)F)S(=O)(=O)C(F)(F)F)c(=O)on1S(=O)(=O)C(C)C [Compound 1-1064]	80%	80%	100%	60%	–	–	–	–	–	–	–	–	90%	90%	90%	90%	90%	70%	50%	80%
Cc1c(Cc2ccccc2NS(=O)(=O)C(F)(F)F)c(=O)on1S(=O)(=O)C(C)C [Compound 1-251]	80%	80%	100%	80%	80%	100%	90%	100%	90%	50%	50%	80%	–	–	–	–	–	–	–	–
Cc1c(Cc2ccccc2N(S(=O)(=O)C(F)(F)F)S(=O)(=O)C(F)(F)F)c(=O)on1CC1CCCCC1 [Compound 1-994]	–	–	–	–	90%	90%	100%	60%	80%	90%	60%	80%	–	–	–	–	–	–	–	–
Cc1c(Cc2ccccc2NS(=O)(=O)C(F)(F)F)c(=O)on1Cc1ccc(C#N)cc1 [Compound 1-189]	–	–	–	–	90%	90%	100%	90%	80%	60%	80%	80%	–	–	–	–	–	–	–	–
Cn1oc(=O)c(Cc2ccccc2NS(=O)(=O)C(F)(F)F)c1C(F)(F)F [Compound 1-78]	–	–	–	–	70%	40%	50%	50%	80%	40%	40%	60%	–	–	–	–	–	–	–	–
Cc1c(Cc2ccccc2NS(=O)(=O)C(F)(F)F)c(=O)on1CCOC(C)C [Compound 1-155]	–	–	–	–	80%	90%	60%	60%	80%	100%	60%	60%	–	–	–	–	–	–	–	–
Cc1c(Cc2ccccc2N(S(=O)(=O)C(F)(F)F)S(=O)(=O)C(F)(F)F)c(=O)on1Cc1ccc(C(C)(C)C)cc1 [Compound 1-1019]	–	–	–	–	40%	40%	60%	60%	0%	0%	40%	40%	–	–	–	–	–	–	–	–
Cc1c(Cc2ccccc2NS(=O)(=O)C(F)(F)F)c(=O)on1Cc1ccc(F)c(Cl)c1 [Compound 1-202]	–	–	–	–	80%	100%	100%	90%	40%	40%	60%	60%	–	–	–	–	–	–	–	–
